Tests used:
[1] = molecular target: LRRK2 wild type enzyme (Homo sapiens, UniProt Q5S007); assay: Biochemical Assay: LRRK2 TR-FRET (LanthaScreen) kinase assay with LRRKtide substrate; details: LRRK2 Inhibition, Table 8
Experimental: 10 mM compound solution was prepared in DMSO. An 11-point, 3-fold dilution was performed, with highest concentration at 10 μM. A 10 mM compound DMSO solution was added to Labcyte LDV plate and the compound concentration of source plate was 10 mM. The 1st compound concentration of Inter plate(Labcyte 384 well PP plate) was 4.938×10^−1 mM which was prepared by transferring 1.5 μL of 10 mM compound from source plate to 28.9 μL DMSO. The 2nd compound concentration of Inter plate was 1.829×10^−2 mM which was prepared by transferring 60 nL of 10 mM compound from source plate to 32.7 μL DMSO. The 3rd compound concentration of Inter plate was 6.774×10^−4 mM which was prepared by transferring 2.5 nL of 10 mM compound from source plate to 36.9 μL DMSO. 100 nL of reference compound was dispensed in column 1 for low control wells and 100 nL of DMSO in column 24 for high control wells. Compounds were dispensed to column 2 to 23 of assay plate and backfilled with DMSO to a total volume of 100 nL.
A 2X LRRK2 enzyme solution (final concentration 3 nM) was prepared in assay buffer (Tris-HCl pH8.0:50 mM, MgCl2: 5 mM, EDTA: 1 mM, Brij-35:0.01%, 2 mM DTT). A 2× substrate solution was prepared: LRRK2 tide substrate (final concentration 400 nM) and ATP (final concentration 25 μM) in assay buffer. 5 μL 2× LRRK2 enzyme solution was dispensed to each well in assay plate by Multidrop. Assay plate was spun at 1,000 rpm for 1 min and incubated for 15 min at 23° C. 5 μL 2× ATP/LRRKtide solution was dispensed to each well in assay plate by Multidrop. Assay plate was spun at 1,000 rpm for 1 min and incubated for 120 min at 23° C.
(§1) A 2× detection solution was prepared: Tb-pERM (pLRRKtide) antibody (final concentration 0.25 nM) and EDTA (final concentration 10 mM) in TR-FRET dilution buffer. 10 μL 2× detection solution was dispensed to each well in assay plate to stop kinase reaction by Multidrop. Assay plate was spun at 1,000 rpm for 1 min and incubate for 30 min at 23° C. Assay plate was then read on Envision configured for LanthaScreen® TR-FRET. pS935 LRRK2 Cell Assay

[2] = molecular target: T1, wild type LRRK2 overexpressed in recombinant HEK-293T cells (Homo sapiens, UniProt Q5S007); assay: pS935 LRRK2 Cell Assay (HTRF, phospho-LRRK2 Ser935); format: cell-based; details: LRRK2 Inhibition, Table 8, 2 hours compound incubation
T1 construct: host or cells: HEK293T (transient transfection with pCMV-LRRK2 WT plasmid)
Experimental: as §1
The following protocol describes an in-vitro method for measuring phosphorylation at Ser935 on wild type LRRK2 overexpressed in recombinant HEK-293T cells. The method is based on HTRF technology, which combines Fluorescence Resonance Energy Transfer (FRET) with Time-Resolved measurement (TR). Phospho-LRRK2 (Ser935) is detected in a sandwich assay format using two different specific antibodies, one labelled with Eu3+-Cryptate (donor) and the second with d2(acceptor).When the fluorophores are in close proximity, excitation of the donor with a light source (flash lamp) stimulates FRET to the acceptor, which in turn fluoresces at a specific wavelength (665 nm). The fluorescence emission at 615 nm from the donor is also measured to allow ratiometric reduction of data. The specific signal is proportional to phospho-LRRK2 (Ser935).
Plasmid transient transfection: DMEM medium, FBS, DPBS, Trans-IT, OPTI-MEM reagents were allowed to warm to room temperature. HEK293T cells were cultured in DMEM +10% FBS complete medium in T150 flasks till around 80% confluency before transfection. Then cells were washed with 10 mL PBS and detached with 3 mL 0.25% typinsin. 30×10E6 HEK293T cells were seeded in DMEM +10% FBS complete medium to a 15 cm dish.
DNA, TransIT-LT1, OPTI-MEM complex were prepared: […] OPTI-MEM was added to a 15 mL cone tube, then […] plasmid was added to OPTI-MEM and mixed, followed by addition of 60 μL TransIT-LT1 to the plasmid OPTI-MEM mixture and mixing. The resulting mixture was incubated for 15 minutes.
The above plasmid, DNA and OPTI-MEM mixture was added dropwise to the 15 cm dish, ensuring the drops were evenly distributed. The culture dish was gently rocked back and forth and from left to right to evenly distribute the complex. The tranfected dish was incubated for 24 hours at 37° C., and 5% CO2.
Transfected HEK293T was collected in the 15 cm dish. Media was aspirated from tissue culture dish, and washed by dispensing 10 mL 1× DPBS into 15 cm dish. 1× DPBS was aspirated and 3 mL trypsin was dispensed to 15 cm dish. The dish was incubated with trypsin at room temperature for 3 min until the cells were detached. 10 mL of DMEM +10% FBS medium were added to 15 cm dish and triturated to ensure homogenous cell suspensions.
Homogenous cell suspensions were transferred to a 50 mL tube, and centrifuged for 5 minutes at 1,000 rmp/min. The supernatant was aspirated and resuspended with 20 mL complete medium. 1 mL of cell suspension was transferred for cell counting. The cell suspension was diluted to 2× 10E5 cells/ml. 50 μL cell suspensions were added to a 384-well plate. The plate was quick spun at 800 rpm for 1 minute, then incubate overnight at 37° C., 5% CO2.
Compound dispensing: compound was diluted (10 mM DMSO stock solution) and added to assay plate (top concentration: 10 μM, 3 fold serial dilution, 9 doses) with duplicates by Tecan liquid handler. The DMSO concentration of each well was normalized to 0.2%. Plates were quick spun at 1,000 rpm for 1 minute. Plates were incubated at 37° C., 5% CO2 for 2 hours.
1× lysis buffer solution supplemented with blocking reagent was prepared (e.g. 1 mL lysis buffer 4X+3 mL water+40 μL stock blocking reagent 100X). Antibodies working solution was prepared by diluting 40-fold d2 and Cryptate antibodies with detection buffer(e.g. 1520 μL detection buffer+40 μL d2-antibody stock solution+[…] Cryptate-antibody stock solution).
After 2 hours incubation, cell plates were taken out from the incubator. […]

T1 sequence (Q5S007 whole entry): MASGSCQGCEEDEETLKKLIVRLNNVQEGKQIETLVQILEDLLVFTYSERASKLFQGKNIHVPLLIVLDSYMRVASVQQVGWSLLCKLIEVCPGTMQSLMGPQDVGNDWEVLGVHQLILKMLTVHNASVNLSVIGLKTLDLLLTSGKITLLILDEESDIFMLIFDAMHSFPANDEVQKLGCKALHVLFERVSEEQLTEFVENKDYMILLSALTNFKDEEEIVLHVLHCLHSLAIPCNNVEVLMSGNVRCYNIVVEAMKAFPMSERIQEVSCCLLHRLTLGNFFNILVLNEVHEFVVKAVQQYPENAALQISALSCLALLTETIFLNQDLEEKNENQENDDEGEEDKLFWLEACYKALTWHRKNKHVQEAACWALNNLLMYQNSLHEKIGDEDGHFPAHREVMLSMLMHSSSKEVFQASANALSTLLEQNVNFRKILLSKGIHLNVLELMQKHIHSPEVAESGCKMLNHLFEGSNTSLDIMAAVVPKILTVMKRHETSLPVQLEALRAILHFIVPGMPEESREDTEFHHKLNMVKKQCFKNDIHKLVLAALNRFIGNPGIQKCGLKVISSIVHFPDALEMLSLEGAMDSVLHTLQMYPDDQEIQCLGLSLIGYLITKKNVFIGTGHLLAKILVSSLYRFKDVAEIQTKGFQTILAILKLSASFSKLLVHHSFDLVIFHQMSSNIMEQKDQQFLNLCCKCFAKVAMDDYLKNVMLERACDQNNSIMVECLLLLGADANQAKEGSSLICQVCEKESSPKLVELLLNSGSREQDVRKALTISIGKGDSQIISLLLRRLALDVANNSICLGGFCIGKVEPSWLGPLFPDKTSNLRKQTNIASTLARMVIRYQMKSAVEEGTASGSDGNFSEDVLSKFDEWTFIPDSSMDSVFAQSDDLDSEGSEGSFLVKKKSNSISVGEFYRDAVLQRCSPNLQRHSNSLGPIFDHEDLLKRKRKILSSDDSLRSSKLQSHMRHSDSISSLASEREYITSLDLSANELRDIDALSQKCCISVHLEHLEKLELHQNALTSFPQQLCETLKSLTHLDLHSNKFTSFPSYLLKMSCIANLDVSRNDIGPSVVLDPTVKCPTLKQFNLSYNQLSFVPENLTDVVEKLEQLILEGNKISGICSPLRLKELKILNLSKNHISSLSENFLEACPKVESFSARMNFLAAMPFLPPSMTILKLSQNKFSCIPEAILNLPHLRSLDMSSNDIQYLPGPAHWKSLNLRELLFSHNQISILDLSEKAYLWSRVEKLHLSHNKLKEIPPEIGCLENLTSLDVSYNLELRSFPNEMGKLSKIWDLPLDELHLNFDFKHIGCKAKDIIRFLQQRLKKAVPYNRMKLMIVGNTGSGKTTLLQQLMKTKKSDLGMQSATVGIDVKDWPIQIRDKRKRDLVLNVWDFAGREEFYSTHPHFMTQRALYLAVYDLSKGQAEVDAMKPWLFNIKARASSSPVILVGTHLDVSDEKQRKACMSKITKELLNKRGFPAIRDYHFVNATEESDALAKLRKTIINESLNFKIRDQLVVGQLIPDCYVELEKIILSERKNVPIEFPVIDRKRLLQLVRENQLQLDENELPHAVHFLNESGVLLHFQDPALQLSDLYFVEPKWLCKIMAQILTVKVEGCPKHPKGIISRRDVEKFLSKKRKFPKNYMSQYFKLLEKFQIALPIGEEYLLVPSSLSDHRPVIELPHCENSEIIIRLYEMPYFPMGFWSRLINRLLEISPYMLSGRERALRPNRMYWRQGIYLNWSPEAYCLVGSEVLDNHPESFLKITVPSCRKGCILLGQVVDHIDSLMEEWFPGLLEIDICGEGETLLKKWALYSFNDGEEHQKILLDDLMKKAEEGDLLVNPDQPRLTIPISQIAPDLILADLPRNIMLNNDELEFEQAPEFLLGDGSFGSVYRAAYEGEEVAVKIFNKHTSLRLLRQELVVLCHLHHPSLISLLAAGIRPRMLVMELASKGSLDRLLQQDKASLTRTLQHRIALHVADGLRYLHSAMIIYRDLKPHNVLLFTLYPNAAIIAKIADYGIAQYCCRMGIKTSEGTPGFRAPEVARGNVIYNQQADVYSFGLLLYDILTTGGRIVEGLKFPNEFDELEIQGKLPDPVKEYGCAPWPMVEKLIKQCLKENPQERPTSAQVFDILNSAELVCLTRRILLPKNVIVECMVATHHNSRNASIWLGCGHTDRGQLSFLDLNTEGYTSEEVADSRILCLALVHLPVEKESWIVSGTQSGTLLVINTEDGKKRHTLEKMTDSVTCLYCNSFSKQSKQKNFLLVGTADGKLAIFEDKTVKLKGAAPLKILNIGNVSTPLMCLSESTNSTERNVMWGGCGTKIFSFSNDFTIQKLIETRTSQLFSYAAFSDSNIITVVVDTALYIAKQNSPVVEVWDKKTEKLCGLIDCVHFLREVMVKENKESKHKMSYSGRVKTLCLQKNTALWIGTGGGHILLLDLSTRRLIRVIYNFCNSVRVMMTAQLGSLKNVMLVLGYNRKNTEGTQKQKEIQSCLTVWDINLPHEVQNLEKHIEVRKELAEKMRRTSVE
Sequence of LRRK2 wild type enzyme (Q5S007 whole entry): as above

Structure (SMILES)	IC50 [1] [nM]	IC50 [2] [nM]
C[C@@H]1C[C@H](n2c(C3CC(=O)N(C)C3)nc3cnc4ccc(C#N)cc4c32)CCO1 (mixture of isomers) [Compound 53, 2-[(3RS)-1-methyl-5-oxopyrrolidin-3-yl]-1-[(2R,4R)-2-methyloxan-4-yl]-1H-imidazo[4,5-c]quinoline-8-carbonitrile]	3.16	666
C[C@@H]1C[C@H](n2c(C3CC(=O)N(Cc4cccnc4)C3)nc3cnc4ccc(C#N)cc4c32)CCO1 (mixture of isomers) [Compound 57, 1-[(2R,4R)-2-methyloxan-4-yl]-2-[(3RS)-5-oxo-1-[(pyridin-3-yl)methyl]pyrrolidin-3-yl]-1H-imidazo[4,5-c]quinoline-8-carbonitrile]	0.958	216
C[C@@H]1C[C@H](n2c(C3CC(=O)N(Cc4cnn(C)c4)C3)nc3cnc4ccc(C#N)cc4c32)CCO1 (mixture of isomers) [Compound 58, 2-[(3RS)-1-[(1-methyl-1H-pyrazol-4-yl)methyl]-5-oxopyrrolidin-3-yl]-1-[(2R,4R)-2-methyloxan-4-yl]-1H-imidazo[4,5-c]quinoline-8-carbonitrile]	1.6	931
C[C@@H]1C[C@H](n2c(C3CC(=O)N(c4cnn(C)c4)C3)nc3cnc4ccc(C#N)cc4c32)CCO1 (mixture of isomers) [Compound 59, 2-[(3RS)-1-(1-methyl-1H-pyrazol-4-yl)-5-oxopyrrolidin-3-yl]-1-[(2R,4R)-2-methyloxan-4-yl]-1H-imidazo[4,5-c]quinoline-8-carbonitrile]	1.06	118
C[C@@H]1C[C@H](n2c(C3CC(=O)N(Cc4ccccn4)C3)nc3cnc4ccc(C#N)cc4c32)CCO1 (mixture of isomers) [Compound 61, 1-[(2R,4R)-2-methyloxan-4-yl]-2-{5-oxo-1-[(pyridin-2-yl)methyl]pyrrolidin-3-yl}-1H-imidazo[4,5-c]quinoline-8-carbonitrile]	1.09	89.2
C[C@@H]1C[C@H](n2c(C3CC(=O)N(C4CCOCC4)C3)nc3cnc4ccc(C#N)cc4c32)CCO1 (mixture of isomers) [Compound 64, 1-[(2R,4R)-2-methyloxan-4-yl]-2-[1-(oxan-4-yl)-5-oxopyrrolidin-3-yl]-1H-imidazo[4,5-c]quinoline-8-carbonitrile]	3.71	313
C[C@@H]1C[C@H](n2c(C3CC(=O)N(CC4CC4)C3)nc3cnc4ccc(C#N)cc4c32)CCO1 (mixture of isomers) [Compound 69, 2-[(3RS)-1-(cyclopropylmethyl)-5-oxopyrrolidin-3-yl]-1-[(2R,4R)-2-methyloxan-4-yl]-1H-imidazo[4,5-c]quinoline-8-carbonitrile]	2.28	182
C[C@@H]1C[C@H](n2c(C3CC(=O)N(Cc4cccnc4)C3)nc3cnc4ccc(C#N)cc4c32)CCO1 (single isomer, unassigned) [Compound 30, 1-[(2R,4R)-2-methyloxan-4-yl]-2-[(3R*)-5-oxo-1-[(pyridin-3-yl)methyl]pyrrolidin-3-yl]-1H-imidazo[4,5-c]quinoline-8-carbonitrile]	0.567	41.3
C[C@@H]1C[C@H](n2c(C3CC(=O)N(Cc4cccnc4)C3)nc3cnc4ccc(C#N)cc4c32)CCO1 (single isomer, unassigned) [Compound 31, 1-[(2R,4R)-2-methyloxan-4-yl]-2-[(3R*)-5-oxo-1-[(pyridin-3-yl)methyl]pyrrolidin-3-yl]-1H-imidazo[4,5-c]quinoline-8-carbonitrile]	26.4	–
C[C@@H]1C[C@H](n2c(CN3CCC(C(=O)O)CC3)nc3cnc4ccc(C#N)cc4c32)CCO1 [Compound 76, 1-({8-cyano-1-[(2R,4R)-2-methyloxan-4-yl]-1H-imidazo[4,5-c]quinolin-2-yl}methyl)piperidine-4-carboxylic acid]	109	–
Cn1cc(-n2c(CC(=O)NCC3CC3)nc3cnc4ccc(C#N)cc4c32)ccc1=O [Compound 92, 2-[8-cyano-1-(1-methyl-6-oxo-1,6-dihydropyridin-3-yl)-1H-imidazo[4,5-c]quinolin-2-yl]-N-(cyclopropylmethyl)acetamide]	> 1000	–
C[C@@H]1C[C@H](n2c([C@@H]3CCN(S(=O)(=O)c4cnn(C)c4)C3)nc3cnc4ccc(C#N)cc4c32)CCO1 [Compound 128, 2-[(3R)-1-[(1-methyl-1H-pyrazol-4-yl)sulfonyl]pyrrolidin-3-yl]-1-[(2R,4R)-2-methyloxan-4-yl]-1H-imidazo[4,5-c]quinoline-8-carbonitrile]	10	–
C[C@@H]1C[C@H](n2c([C@@H]3CCN(C(=O)c4cccnn4)C3)nc3cnc4ccc(C#N)cc4c32)CCO1 [Compound 129, 1-[(2R,4R)-2-methyloxan-4-yl]-2-[(3R)-1-(pyridazine-3-carbonyl)pyrrolidin-3-yl]-1H-imidazo[4,5-c]quinoline-8-carbonitrile]	2.47	–
C[C@@H]1C[C@H](n2c([C@@H]3CCN(C(=O)c4cnn(C)c4)C3)nc3cnc4ccc(C#N)cc4c32)CCO1 [Compound 130, 2-[(3R)-1-(1-methyl-1H-pyrazole-4-carbonyl)pyrrolidin-3-yl]-1-[(2R,4R)-2-methyloxan-4-yl]-1H-imidazo[4,5-c]quinoline-8-carbonitrile]	6.71	–
Cn1cc(-n2c(C3CC(=O)N(CC4CC4)C3)nc3cnc4ccc(C#N)cc4c32)ccc1=O (stereo not shown) [Compound 137, 2-[1-(cyclopropylmethyl)-5-oxopyrrolidin-3-yl]-1-(1-methyl-6-oxo-1,6-dihydropyridin-3-yl)-1H-imidazo[4,5-c]quinoline-8-carbonitrile]	> 1000	–
Cc1cc(-n2c(CC(=O)NCC3CC3)nc3cnc4ccc(C#N)cc4c32)ccn1 [Compound 138, 2-[8-cyano-1-(2-methylpyridin-4-yl)-1H-imidazo[4,5-c]quinolin-2-yl]-N-(cyclopropylmethyl)acetamide]	> 1000	–
C[C@@H]1C[C@H](n2c(CC(=O)NCC3CC3)nc3cnc4ccc(C(=O)N(C)C)cc4c32)CCO1 [Compound 144, 2-{[(cyclopropylmethyl)carbamoyl]methyl}-N,N-dimethyl-1-[(2R,4R)-2-methyloxan-4-yl]-1H-imidazo[4,5-c]quinoline-8-carboxamide]	> 1000	–

Source: patent publication US20250270209A1 (INTERLINE THERAPEUTICS, INC., priority 2022, published 2025)
